As a reminder, the IC50 is the concentration at which inhibition is half-maximal.

Assay [1] relates to Wnt target genes. As to conditions: literature; cited from earlier work.
Assay [2] addresses T1, activated β-catenin (Homo sapiens, UniProt P35222).
T1 sequence (P35222 1-781): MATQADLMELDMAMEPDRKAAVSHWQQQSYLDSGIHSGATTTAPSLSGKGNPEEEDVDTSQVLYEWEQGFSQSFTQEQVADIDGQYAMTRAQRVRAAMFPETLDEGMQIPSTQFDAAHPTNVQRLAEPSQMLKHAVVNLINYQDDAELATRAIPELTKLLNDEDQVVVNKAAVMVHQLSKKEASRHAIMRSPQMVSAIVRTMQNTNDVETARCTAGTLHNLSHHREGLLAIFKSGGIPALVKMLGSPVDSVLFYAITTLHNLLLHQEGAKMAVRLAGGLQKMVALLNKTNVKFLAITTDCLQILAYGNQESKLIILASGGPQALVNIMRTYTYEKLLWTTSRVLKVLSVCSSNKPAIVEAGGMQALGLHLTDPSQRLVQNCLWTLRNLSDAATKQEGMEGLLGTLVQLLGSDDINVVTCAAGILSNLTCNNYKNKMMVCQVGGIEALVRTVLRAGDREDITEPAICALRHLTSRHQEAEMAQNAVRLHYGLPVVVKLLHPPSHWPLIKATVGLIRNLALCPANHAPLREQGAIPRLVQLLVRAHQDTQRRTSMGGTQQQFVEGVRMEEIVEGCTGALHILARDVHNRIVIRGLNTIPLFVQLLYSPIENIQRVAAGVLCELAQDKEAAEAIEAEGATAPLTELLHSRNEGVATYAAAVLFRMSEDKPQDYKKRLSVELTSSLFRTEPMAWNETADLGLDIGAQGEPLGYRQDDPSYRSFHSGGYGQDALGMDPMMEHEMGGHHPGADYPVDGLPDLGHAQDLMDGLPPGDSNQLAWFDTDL
As to conditions: literature; cited from earlier work.

For assay [3], the target named is T2, β-catenin/BCL9 interaction (Homo sapiens, UniProt P35222).
T2 sequence (P35222 1-781): T1 sequence (P35222 1-781)
The conditions noted are these: literature; cited from earlier work.

The subject of assay [4] is TOPFlash (three wild-type Tcf binding sites) luciferase reporter. Nature of the assay: Wnt-responsive TOPFlash luciferase reporter assay, β-catenin-activated HEK239. Type of assay: cell-based. As to conditions: 24 h treatment, read-out: TOPFlash IC50 ± SD β-catenin-activated HEK239. As for the experimental part: (§1) The TOPFlash luciferase reporter assay (in which the luciferase reporter has three wild-type Tcf4 binding sites) was performed with 4 and 5. Cell transfection and luciferase assay. FuGENE6 (E269A, Promega) 96 well plate format was used for the transfection of HEK293 and SW480 cells according to the manufacturer's instruction. HEK293 cells were co-transfected with 45 ng of TOPFlash or FOPFlash reporter gene, 135 ng pcDNA3.1-β-catenin, and 20 ng of pCMV-RL normalization reporter gene. SW480 cells were co-transfected with 60 ng of the TOPFlash or FOPFlash reporter gene and 40 ng of pCMV-RL normalization reporter. Cells were cultured in DMEM and 10% FBS at 37° C. for 24 h, and different concentrations of inhibitors or DMSO was added. After 24 h, the luciferase reporter activity was measured using the Dual-Glo system (E2940, Promega). Normalized luciferase activity in response to the treatment with 4 and 5 was compared with that obtained from the cells treated with DMSO. Experiments were performed in triplicate.
In general terms: In a reporter assay the amount or activity of a reporter protein is the signal.

The subject of assay [5] is FOPFlash (three mutant Tcf4 binding sites) luciferase reporter. Nature of the assay: FOPFlash luciferase reporter assay. Type of assay: cell-based. The conditions noted are these: FIG. 1. Here is the method:
as §1, with “Cell” for “The TOPFlash luciferase reporter assay (in which the luciferase reporter has three wild-type Tcf4 binding sites) was performed with 4 and 5. Cell”

The subject of assay [6] is TOPFlash (three wild-type Tcf binding sites) luciferase reporter. Nature of the assay: Wnt-responsive TOPFlash luciferase reporter assay, SW480. As to conditions: Homo sapiens, 24 h treatment, read-out: TOPFlash IC50 ± SD SW480. Type of assay: cell-based. As for the experimental part:
as §1

Assay [7] deals with T3, β-catenin/E-cadherin (Homo sapiens, UniProt P35222).
T3 construct: Full-length β-catenin and (residues 1-781) were cloned into a pET-28b vector carrying a C-terminal 6× histidine; made in house; host or cells: E. coli BL21 DE3
T3 sequence (P35222 1-781): T1 sequence (P35222 1-781)
The experiment in a line: AlphaScreen selectivity assay, β-catenin/E-cadherin PPI. Type of assay: binding. The conditions noted are these: Table 2, read-out: Ki ± SD β-catenin/E-cadherin. From the text: Compounds 4 and 5 were further evaluated with their selectivities for the disruption of β-catenin/BCL9 over β-catenin/E-cadherin interactions using the AlphaScreen selectivity assay (Zhang, M.; Wisniewski, J. A.; Ji, H AlphaScreen selectivity assay for, β-catenin/B-cell lymphoma 9 inhibitors. Anal. Biochen. 2015, 469, 43-53.).
BCL9 peptide synthesis and purification. Human BCL9 (residues 350-375), N-terminally biotinylated human BCL9 (residues 350-375), human E-cadherin (residues 824-877), and N-terminally biotinylated human E-cadherin (residues 824-877) were synthesized by InnoPep Inc. (San Diego, Calif., www.innopep.com). All synthesized peptides were purified by HPLC with purity >95%. […]
For the β-catenin/BCL9 assay, 5 nM of biotinylated BCL9 and 40 nM of His6-tagged β-catenin were incubated in assay buffer at 4° C. for 30 min. […] The IC50 value was determined by nonlinear least-square analysis of GraphPad Prism 5.0. The inhibition constant (Ki) values were derived from the IC50 values using a method reported by Nikolovska-Coleska et al (Nikolovska-Coleska, Z.; Wang, R.; Fang, X.; Pan, H.; Tomita, Y.; Li, P.; Roller, P. P.; Krajewski, K.; Saito, N. G.; Stuckey, J. A.; Wang, S. Development and optimization of a binding assay for the XIAP BIR3 domain using fluorescence polarization, Anal. Biochem. 2004, 332, 261-273.). […] The results were expressed as mean±standard deviation. […]

In assay [8] the test system is A549. The experiment in a line: MTs growth inhibition assay, A549 (Wnt-latent). Type of assay: cell-based. The conditions noted are these: Homo sapiens, read-out: MTs IC50 ± SD A549.
Assay [9] concerns the target T4, β-catenin/BCL9 (Homo sapiens, UniProt P35222).
T4 construct: Full-length β-catenin and (residues 1-781) were cloned into a pET-28b vector carrying a C-terminal 6× histidine; made in house; host or cells: E. coli BL21 DE3
T4 sequence (P35222 1-781): T1 sequence (P35222 1-781)
Nature of the assay: AlphaScreen competitive inhibition assay, β-catenin/BCL9 PPI. As to conditions: for Ki: AlphaScreen. Type of assay: binding. From the text: The biochemical AlphaScreen assay was employed to evaluate the inhibitory potency of these two final products for disruption of the β-catenin/BCL9 PPI.
BCL9 peptide synthesis and purification. Human BCL9 (residues 350-375), N-terminally biotinylated human BCL9 (residues 350-375), human E-cadherin (residues 824-877), and N-terminally biotinylated human E-cadherin (residues 824-877) were synthesized by InnoPep Inc. (San Diego, Calif., www.innopep.com). All synthesized peptides were purified by HPLC with purity >95%. The structures were validated by LC/MS. The sequences are as follows (Ahx, 6-aminohexanoic acid).
For the β-catenin/BCL9 assay, 5 nM of biotinylated BCL9 and 40 nM of His6-tagged β-catenin were incubated in assay buffer at 4° C. for 30 min. For the β-catenin/E-cadherin assay, 10 nM of biotinylated human E-cadherin, and 40 nM of His6-tagged human β-catenin were added and incubated in assay buffer at 4° C. for 30 min. Different concentrations of the tested peptide or inhibitor were added and incubated in 20 μL assay buffer at 4° C. for another 1.5 h. All of the above assay plates were covered and gently mixed on an orbital shaker. The donor and acceptor beads were then added to the plates to a final concentration of 10 μg/mL in 25 μL assay buffer. The mixture was incubated for 1 h at 4° C. before detection. The IC50 value was determined by nonlinear least-square analysis of GraphPad Prism 5.0. The inhibition constant (Ki) values were derived from the IC50 values using a method reported by Nikolovska-Coleska et al (Nikolovska-Coleska, Z.; Wang, R.; Fang, X.; Pan, H.; Tomita, Y.; Li, P.; Roller, P. P.; Krajewski, K.; Saito, N. G.; Stuckey, J. A.; Wang, S. Development and optimization of a binding assay for the XIAP BIR3 domain using fluorescence polarization, Anal. Biochem. 2004, 332, 261-273.). The assays were conducted under the conditions required by Nikolovska-Coleska et al.'s equation for determining the Ki values. All of the experiments were performed in triplicate. The results were expressed as mean±standard deviation. The inhibitor selectivity for, β-catenin/BCL9 over, β-catenin/E-cahderin interactions was defined as the ratio of the respective Ki value of β-catenin/E-cadherin interactions over that of β-catenin/BCL9 interactions.

`CC(C)c1cc2c(c(O)c1O)[C@@]1(C(=O)O)CCCC(C)(C)[C@@H]1CC2` [carnosic acid]: in assay [1], the “transcription of Wnt target genes / β-catenin-dependent transcription” value was “inhibit”. For the same molecule, in assay [2], the “destabilization of activated β-catenin” value is given as “destabilize”. The “disruption of the β-catenin/BCL9 interaction” value in assay [3] was “can disrupt the β-catenin/BCL9 interaction”.
Turning to `Cl.Cl.O=C(Nc1ccc(O[C@@H]2CCNC2)c(-c2cccc(-c3nn[nH]n3)c2)c1)c1ccc(O[C@H]2CCNC2)c(-c2ccc3ccsc3c2)c1` [Compound 5, (R)-3-((5-(3-(benzo[b]thiophen-6-yl)-4-(((S)-pyrrolidin-1-ium-3-yl)oxy)benzamido)-3′-(2H-tetrazol-5-yl)-[1,1′-biphenyl]-2-yl)oxy) pyrrolidin-1-ium chloride], the figures for the IC50 in [4], in [6] and in assay [8] were 50 ± 5.2 µM, 43 ± 3.4 µM and over 400 µM, respectively. The FOPFlash luciferase activity entry in assay [5] is reported as “did not inhibit”. Besides, the Ki in assay [7] is over 915 µM; in [9] (Table 1, mean ± SD (n = 3)), 1.6 ± 0.23 µM; in assay [9] (Table 2, mean ± SD (n = 3)) it was 1.6 ± 0.23 µM. In [9] (AlphaScreen biochemical assay), the “selectivity for β-catenin/BCL9 over β-catenin/E-cadherin PPIs (in words)” value is given as “exceptionally high selectivity”. The “Selectivity BCL9/cadherin” value in assay [9] (ratio of Ki β-catenin/E-cadherin over Ki β-catenin/BCL9) is over 570.

(Values after patent US20220411414A1, “INHIBITORS FOR THE B-CATENIN/B-CELL LYMPHOMA 9 (BCL9) PROTEIN-PROTEIN INTERACTION” (H. LEE MOFFITT CANCER CENTER AND RESEARCH INSTITUTE, INC., priority 2018, published 2022).)
